Data reported in publication PMC11078216, “Discovery of potent and selective activity-based probes (ABPs) for the deubiquitinating enzyme USP30” (RSC Chemical Biology, 2024).

Target: T1, ALDH1A2 (Homo sapiens, UniProt O94788)
T1 construct: endogenous in cells; host or cells: HEK293T
T1 sequence (O94788 1-518): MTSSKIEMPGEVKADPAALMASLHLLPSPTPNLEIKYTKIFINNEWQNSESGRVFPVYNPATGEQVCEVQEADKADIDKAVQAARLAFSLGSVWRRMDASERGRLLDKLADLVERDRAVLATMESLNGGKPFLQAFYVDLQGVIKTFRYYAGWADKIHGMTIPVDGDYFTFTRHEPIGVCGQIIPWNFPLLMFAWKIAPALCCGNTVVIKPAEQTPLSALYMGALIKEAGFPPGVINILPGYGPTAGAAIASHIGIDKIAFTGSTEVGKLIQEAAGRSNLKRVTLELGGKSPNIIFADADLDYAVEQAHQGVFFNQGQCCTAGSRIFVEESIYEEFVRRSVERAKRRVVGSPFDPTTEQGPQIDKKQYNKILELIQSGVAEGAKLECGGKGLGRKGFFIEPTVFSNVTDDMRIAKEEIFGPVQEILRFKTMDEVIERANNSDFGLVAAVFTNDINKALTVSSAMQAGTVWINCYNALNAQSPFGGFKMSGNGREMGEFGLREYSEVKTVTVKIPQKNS
Assay: ABPP chemical proteomics (LC-MS/MS) in HEK293T cells
Type: cell-based
Experimental: To explore the selectivity of IMP-2587 and IMP-2586 across the whole proteome, we performed quantitative activity-based protein profiling (ABPP) in HEK293T cells following treatment with IMP-2587 or IMP-2586 (Fig. 3a). After ABP incubation, cells were lysed, and probe-labelled proteins were ligated to biotinylated capture reagents.[27] […] USP30 was outcompeted by corresponding parent inhibitors for each ABP (Fig. 5b and d and Tables S3 and S5, ESI ^†), confirming the high potency and rapid engagement of IMP-2587 and IMP-2586 in cells. […] DESI1 and DESI2 are small ubiquitin-related modifier (SUMO) proteases,[3,29–32] and IMP-2587 and IMP-2586 may offer a starting point for future development of DESI ABPs. […]
d) Live cell probe incubation, lysate click chemistry and precipitation 6-well HEK293T cells were incubated with media containing compounds ABP 2 and ABP 4 at indicated concentrations for 1 h at 37 °C. The cells were washed with PBS and lysed with lysis buffer (50 μL (1% (v/v) Triton X-100, 0.1% (w/v) sodium dodecyl sulfate (SDS), EDTA-free complete protease inhibitor cocktail (1×, Roche) in PBS on ice for 10 min. The lysates were scraped and transferred to corresponding Lo-Bind Eppendorfs. Each lysate was sonicated for 1 minute, and the samples centrifuges at 5,000 x g at 4 °C for 5 minutes to pellet insoluble cellular debris. The supernatant was collected, and protein concentration was determined using the DC Protein Assay (Bio-Rad) as per manufacturer’s instructions, and normalised to lowest concentrated sample (e.g. 1 mg/mL, using lysis buffer). The following “click mixture” was prepared separately, preparing 6 μL for every 100 μL of […]
Capture reagent (AzRB/AzT for ABP 2, YnT/YnB for ABP 4 10 mM in DMSO, 1 vol; final concentration […]
CuSO4 (50 mM in water, 2 vol; final concentration in reaction 1 mM)
TCEP (50 mM in water, 2 vol; final concentration in reaction 1 mM)
TBTA (10 mM in DMSO, 1 vol; final concentration in reaction 100 µM)
The click mixture was vortexed and incubated at room temperature for 2 min before 6 μL of the mixture was added to every 100 μL of lysate. The reaction mixtures were shaken at room temperature for 1 h before being quenched with EDTA (500 mM in H2O) to a final concentration of 10 mM.
Proteins were precipitated by adding H2O (1 vol), MeOH (2 vol) and CHCl3 (0.5 vol), vortexing briefly then centrifuging at 17,000 × g for 5 min. The top H2O/MeOH layer was discarded and the middle layer of protein pellet and lower CHCl3 layer retained. The suspension was washed with MeOH (300 μL), and sonicated to break up the pellet. The proteins were pelleted by centrifugation at 10,000–17000 × g for 5–10 min or until a compact pellet was formed. The protein pellet was washed once more with MeOH (1 mL). The pellet was resuspended by sonicating and completely dissolving in 1% (w/v) SDS in PBS (to 5 mg/mL protein) before being made up to 1 mg/mL protein with PBS.
The lysate samples (10-20 μg) were mixed with 4× Laemmli sample loading buffer (250 mM Tris -HCl pH 6.8, 30% (v/v) glycerol, 10% (w/v) SDS, 0.05% (w/v) bromophenol blue) supplemented with 20% v/v β-mercaptoethanol (BME) and boiled for 10 min at 95 °C. The resulting protein samples were separated according to the protocol in section 3.2.c. Gel were imaged on a Typhoon imager (GE Healthcare; λEx 532 nm, λEm 575 nm for TAMRA. For protein loading quantification, gels were stained with Coomassie blue staining solution overnight, rinsed with water and imaged on an ImageQuant™ LAS 4000 imager (GE Healthcare). f) Neutravidin biotin enrichment (Affinity pull-down)
Click chemistry and precipitation steps were carried out as described in section 3.2.d, on at least 400ug of protein per sample. The pellet was resuspended by sonicating and completely dissolving in 1% (w/v) SDS in HEPES 50 mM pH 8.0, before being made up to 1 mg/mL protein with HEPES 50 mM pH 8.0 to […]
achieve a final concentration of 0.2% SDS. 20uL of each samples was collected as TL (Total lysate) […]
samples. […]

N#CN1CC[C@H](CC(=O)Nc2cc(-c3cccc(Cl)c3)no2)C1 [compound 1, reference compound]
Difference (log2 fold change of enrichment) (compound 1 out-competition with IMP-2587 labelling, HEK293T (Table S3, Fig.5b)): -3.93

C#Cc1cccc(-c2cc(NC(=O)CC3CCN(C#N)C3)on2)c1 (stereo not shown) [IMP-2587]
Difference (log2 fold change of enrichment) (IMP-2587 labelling vs DMSO, 30 nM, 10 min, HEK293T (Table S2, Fig.5a)): 3.97

N#CN1CC[C@@H](NC(=O)c2cc(-c3ccccc3Oc3ccc(N=[N+]=[N-])cc3)n[nH]2)C1 [IMP-2586]
Difference (log2 fold change of enrichment) (IMP-2586 labelling vs DMSO, 30 nM, 10 min, HEK293T (Table S4, Fig.5c)): 3.54

N#CN1CC[C@@H](NC(=O)c2cc(-c3ccccc3Oc3ccccc3)n[nH]2)C1 [compound 3, reference compound]
Difference (log2 fold change of enrichment) (compound 3 out-competition with IMP-2586 labelling, HEK293T (Table S5, Fig.5d)): -2.44
